Data taken from patent US8048825B2, “Haloalkylsulfonanilide derivatives or salt thereof, herbicide comprising the derivatives as active ingredient, and use of the herbicide” (Nihon Nohyaku Co., Ltd., priority 2006, dated 2011).

Assays:
Assay type in all cases: in vivo
[1] = tested on: Scirpus juncoides; experiment: Herbicidal efficacy on paddy field weeds of pre-emergence stage (Pre), Test Example 1; conditions: 1000 g/ha as active ingredient, examined after 21 days
How it was run: (§1)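 Pre-emergence paddy test: 1000 g/ha active ingredient, formulated and water-diluted, dropped onto 5 cm floodwater one day after sowing both weeds in clay loam. After 21 days in greenhouse, inhibition relative to untreated control rated on 0 (0%) to 5 (100%) scale.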

[2] = tested on: Lindernia procumbens; experiment: as above; conditions: 1000 g/ha as active ingredient, examined after 21 days
How it was run: as §1

[3] = tested on: Scirpus juncoides; experiment: Herbicidal effect on paddy field weeds of post-emergence stage (Post), Test Example 2; conditions: one-leaf stage, 1000 g/ha as active ingredient, examined after 21 days
How it was run: (§2)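 Post-emergence paddy test: formulated compound added to 5 cm standing water at 1000 g/ha a.i. when weeds reached one-leaf stage in clay loam pots in greenhouse. Growth inhibition rated 21 days later versus untreated control on a 0 (0%) to 5 (100%) scale.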

[4] = tested on: Echinochloa crus-galli; experiment: as above; conditions: one-leaf stage, 1000 g/ha as active ingredient, examined after 21 days
How it was run: as §2

[5] = tested on: Lindernia procumbens; experiment: as above; conditions: one-leaf stage, 1000 g/ha as active ingredient, examined after 21 days
How it was run: as §2

| SMILES | Scirpus juncoides pre (herbicidal effect) [1] | Lindernia procumbens pre (herbicidal effect) [2] | Scirpus juncoides post (herbicidal effect) [3] | Echinochloa crus-galli post (herbicidal effect) [4] | Lindernia procumbens post (herbicidal effect) [5] |
| --- | --- | --- | --- | --- | --- |
| CCOC(=O)N(c1ccccc1CN1CCC(CC)(C(C)C)OC1=O)S(=O)(=O)C(F)(F)F (racemic) [Compound 1-452] | 5 (100% herbicidal effect, phytotoxicity) | 5 (100% herbicidal effect, phytotoxicity) | 4 (90%-99% herbicidal effect, phytotoxicity) | 4 (90%-99% herbicidal effect, phytotoxicity) | 5 (100% herbicidal effect, phytotoxicity) |
| CC1CCN(Cc2ccccc2N(C(=O)OCC(Cl)(Cl)Cl)S(=O)(=O)C(F)(F)F)C(=O)OC1 (racemic) [2-34] | 4 (90%-99% herbicidal effect, phytotoxicity) | 4 (90%-99% herbicidal effect, phytotoxicity) | 4 (90%-99% herbicidal effect, phytotoxicity) | 4 (90%-99% herbicidal effect, phytotoxicity) | 4 (90%-99% herbicidal effect, phytotoxicity) |
| CCC1(C(F)(F)F)CCN(Cc2ccccc2N(C(=O)OCC(C)C)S(=O)(=O)C(F)(F)F)C(=O)O1 (centres unmarked) [Compound 1-96] | 4 (90%-99% herbicidal effect, phytotoxicity) | 5 (100% herbicidal effect, phytotoxicity) | 4 (90%-99% herbicidal effect, phytotoxicity) | 4 (90%-99% herbicidal effect, phytotoxicity) | 5 (100% herbicidal effect, phytotoxicity) |
| CC(C)COC(=O)N(c1ccccc1CN1CCCOC1=S)S(=O)(=O)C(F)(F)F [Compound 1-17] | 4 (90%-99% herbicidal effect, phytotoxicity) | 4 (90%-99% herbicidal effect, phytotoxicity) | 4 (90%-99% herbicidal effect, phytotoxicity) | 4 (90%-99% herbicidal effect, phytotoxicity) | 4 (90%-99% herbicidal effect, phytotoxicity) |
| CC1(C)CN(Cc2ccccc2NS(=O)(=O)C(F)(F)F)C(=O)OC1c1ccccc1 (centres unmarked) [Compound 1-261] | 5 (100% herbicidal effect, phytotoxicity) | 5 (100% herbicidal effect, phytotoxicity) | 4 (90%-99% herbicidal effect, phytotoxicity) | 4 (90%-99% herbicidal effect, phytotoxicity) | 5 (100% herbicidal effect, phytotoxicity) |
| CCOC(=O)N(c1ccccc1CN1CC(C)(C)COC1=S)S(=O)(=O)C(F)(F)F [Compound 1-36] | 4 (90%-99% herbicidal effect, phytotoxicity) | 4 (90%-99% herbicidal effect, phytotoxicity) | 4 (90%-99% herbicidal effect, phytotoxicity) | 4 (90%-99% herbicidal effect, phytotoxicity) | 4 (90%-99% herbicidal effect, phytotoxicity) |
| CCC1(c2ccccc2)CCN(Cc2ccccc2N(C(=O)OCC(C)C)S(=O)(=O)C(F)(F)F)C(=O)O1 (centres unmarked) [Compound 1-321] | 4 (90%-99% herbicidal effect, phytotoxicity) | 5 (100% herbicidal effect, phytotoxicity) | 4 (90%-99% herbicidal effect, phytotoxicity) | 4 (90%-99% herbicidal effect, phytotoxicity) | 5 (100% herbicidal effect, phytotoxicity) |
| CC(C)COC(=O)N(c1ccccc1CN1CCC(C)(C2CC2)OC1=O)S(=O)(=O)C(F)(F)F (centres unmarked) [Compound 1-130] | 4 (90%-99% herbicidal effect, phytotoxicity) | 4 (90%-99% herbicidal effect, phytotoxicity) | 4 (90%-99% herbicidal effect, phytotoxicity) | 4 (90%-99% herbicidal effect, phytotoxicity) | 4 (90%-99% herbicidal effect, phytotoxicity) |
| CC(C)(C)COC(=O)N(c1ccccc1CN1CCC(C)(C(F)(F)F)OC1=O)S(=O)(=O)C(F)(F)F (centres unmarked) [Compound 1-86] | 4 (90%-99% herbicidal effect, phytotoxicity) | 4 (90%-99% herbicidal effect, phytotoxicity) | 4 (90%-99% herbicidal effect, phytotoxicity) | 4 (90%-99% herbicidal effect, phytotoxicity) | 4 (90%-99% herbicidal effect, phytotoxicity) |
| CCC1(CC)CCN(Cc2ccccc2N(C(=O)OCC(C)C)S(=O)(=O)C(F)(F)F)C(=O)O1 [Compound 1-107] | 4 (90%-99% herbicidal effect, phytotoxicity) | 4 (90%-99% herbicidal effect, phytotoxicity) | 4 (90%-99% herbicidal effect, phytotoxicity) | 4 (90%-99% herbicidal effect, phytotoxicity) | 4 (90%-99% herbicidal effect, phytotoxicity) |
| CCC1(C(C)C)CCN(Cc2ccccc2N(C(=O)OCC(C)C)S(=O)(=O)C(F)(F)F)C(=O)O1 (racemic) [Compound 1-455] | 5 (100% herbicidal effect, phytotoxicity) | 5 (100% herbicidal effect, phytotoxicity) | 4 (90%-99% herbicidal effect, phytotoxicity) | 5 (100% herbicidal effect, phytotoxicity) | 5 (100% herbicidal effect, phytotoxicity) |
| COC(=O)N(c1ccccc1CN1CCC(C)(C(F)(F)F)OC1=O)S(=O)(=O)C(F)(F)F (centres unmarked) [Compound 1-81] | 4 (90%-99% herbicidal effect, phytotoxicity) | 5 (100% herbicidal effect, phytotoxicity) | 4 (90%-99% herbicidal effect, phytotoxicity) | 4 (90%-99% herbicidal effect, phytotoxicity) | 5 (100% herbicidal effect, phytotoxicity) |
| CC(C)COC(=O)N(c1ccccc1CN1CC(C)(C)COC1=O)S(=O)(=O)C(F)(F)F [Compound 1-28] | 4 (90%-99% herbicidal effect, phytotoxicity) | 4 (90%-99% herbicidal effect, phytotoxicity) | 4 (90%-99% herbicidal effect, phytotoxicity) | 4 (90%-99% herbicidal effect, phytotoxicity) | 4 (90%-99% herbicidal effect, phytotoxicity) |
